# Measured values: US10155948B2, “Pharmaceutical composition for preventing or treating diabetic complications and screening method for preventive or therapeutic agent for diabetic complications” (KANGWON NATIONAL UNIVERSITY UNIVERSITY-INDUSTRY COOPERATION …, priority 2016, dated 2018)
# System: VE-cadherin
# Assay: Visualization of VE-cadherin (adherens junction disruption) in HRECs
# Assay type: cell-based, human
# Details: for VEGF-induced VE-cadherin breakdown: HRECs, 50 μM cystamine or 20 μM MDC 30 min, 10 ng/ml VEGF; for VEGF-induced VE-cadherin disruption: summary statement, conditions not given
# Description: Actin filaments and VE-cadherin were visualized as previously described. For visualization of actin filaments, cells were treated with 10 ng/ml VEGF for 1 hr at 37° C., fixed with 3.7% formaldehyde, and permeabilized with 0.2% Triton X-100. […] For visualization of VE-cadherin, cells were preincubated with the TGase2 inhibitors for 30 min and treated with 10 ng/ml VEGF for 90 min at 37° C. Following fixation and permeabilization, cells were incubated overnight with a monoclonal anti-VE-cadherin antibody (1:200, Santa Cruz Biotechnology) at 4° C. Cells were then probed with an FITC-conjugated goat anti-mouse antibody (1:200, Sigma) and VE-cadherin was visualized using confocal microscopy. Adherens junctions are represented by histograms of VE-cadherin as indicated by dotted lines and were quantitatively analyzed using peak fluorescence intensities of the histograms at the single-cell level for 10 randomly selected cells per experiment.
# (A-C) HRECs were preincubated with 50 μM cystamine (Cys) and 20 μM MDC for 30 min and treated with 10 ng/ml VEGF. Stress fibers and VE-cadherin were stained and visualized by confocal microscopy as described in Research Design and Methods (n=3) ((A) Representative images of stress fibers. Scale Bar, 30 μm. (B) Representative images of VE-cadherin. Scale Bar, 10 μm). Adherens junctions are represented by histograms of VE-cadherin as indicated by dotted lines. (C) Adherens junctions were quantitatively analyzed using the peak fluorescence intensities of the histograms at the single-cell level. The results are expressed as mean±SD from three independent trials. (D) In-vitro endothelial cell monolayer permeability assay. HRECs on inserts of Transwell® Permeable Supports were incubated with 50 μM cystamine and 20 μM MDC for 30 min and treated with 10 ng/mL VEGF for 90 min. The amount of FITC-dextran that diffused to the lower chamber was measured by a microplate spectrofluorometer (n=3) (**p<0.01).
# HRECs were transfected with 100 nM human TGase2-specific siRNA (TGase2 siRNA) or 100 nM control (Ctrl) siRNA. Endothelial cells were treated with 10 ng/ml VEGF and subjected to the confocal microscopic visualization of stress fibers (A) and VE-cadherin (B), as described in Research Design and Methods (n=3). (A) TGase2 siRNA inhibition of VEGF-induced formation of stress fibers. Scale bar, 30 μm. (B) Representative images of VE-cadherin and adherens junctions represented by VE-cadherin histograms. Scale bar, 10 μm. (C) Adherens junctions were quantitatively analyzed using peak fluorescence intensities of the histograms at the single-cell level. Results are expressed as mean±SD from three independent experiments (***p<0.001).
SMILES,VEGF-induced VE-cadherin breakdown,VEGF-induced VE-cadherin disruption
"CN(C)c1cccc2c(S(=O)(=O)NCCCCCN)cccc12 [MDC, monodansylcadaverine]",inhibited,–
NCCSSCCN [cystamine],inhibited,–
NCCS [cysteamine],–,prevented
NCCc1ccc(O)c(O)c1 [dopamine],–,prevented
